Data on 14 molecules can be found in ChEMBL document CHEMBL1201862, “PubChem BioAssay data set” (2004).

SMILES strings stand for the structures. The source made the active and inactive calls.

Assay [1] deals with T1, Short transient receptor potential channel 4 (Mus musculus, UniProt Q9QUQ5).
T1 sequence (Q9QUQ5 whole entry): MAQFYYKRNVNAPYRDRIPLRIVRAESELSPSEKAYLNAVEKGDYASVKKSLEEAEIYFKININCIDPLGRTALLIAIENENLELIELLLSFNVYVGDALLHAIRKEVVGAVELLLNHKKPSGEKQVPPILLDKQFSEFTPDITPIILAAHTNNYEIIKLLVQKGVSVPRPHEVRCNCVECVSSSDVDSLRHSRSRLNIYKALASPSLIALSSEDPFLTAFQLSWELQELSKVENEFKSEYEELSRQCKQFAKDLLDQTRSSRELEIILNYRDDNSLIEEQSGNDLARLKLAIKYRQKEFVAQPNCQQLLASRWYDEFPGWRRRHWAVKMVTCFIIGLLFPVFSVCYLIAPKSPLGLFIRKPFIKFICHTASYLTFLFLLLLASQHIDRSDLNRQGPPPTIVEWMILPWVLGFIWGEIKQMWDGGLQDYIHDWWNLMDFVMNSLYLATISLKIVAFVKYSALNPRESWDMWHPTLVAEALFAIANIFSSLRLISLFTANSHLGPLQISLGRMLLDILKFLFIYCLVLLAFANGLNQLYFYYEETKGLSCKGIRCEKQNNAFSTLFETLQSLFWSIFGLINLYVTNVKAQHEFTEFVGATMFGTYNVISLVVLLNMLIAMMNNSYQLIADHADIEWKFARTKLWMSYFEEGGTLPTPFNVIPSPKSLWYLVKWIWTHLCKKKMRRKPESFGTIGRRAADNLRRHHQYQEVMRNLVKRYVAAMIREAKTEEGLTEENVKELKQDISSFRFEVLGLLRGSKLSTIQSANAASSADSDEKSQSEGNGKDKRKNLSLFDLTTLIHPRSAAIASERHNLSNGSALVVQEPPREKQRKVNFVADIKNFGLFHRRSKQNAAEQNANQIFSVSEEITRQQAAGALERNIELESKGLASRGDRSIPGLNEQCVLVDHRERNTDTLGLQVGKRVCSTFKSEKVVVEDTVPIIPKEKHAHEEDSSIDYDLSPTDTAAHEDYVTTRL
The assay can be described thus: block of DAMGO-driven TRPC4 calcium entry – cell-based, HEK293 TRPC4/mu-opioid, Fluo-4 calcium, dose response (AID 434942).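 Note: potency of inhibitors blocking the TRPC4 calcium response.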 Type of assay: functional.

A short description of assay [2]: A cytotoxicity screen of small molecule inhibitors of the PhoP region in Salmonella typhi identified in the primary screen. [Related pubchem assays: 1850, 1864, 1985 ]. The class given is functional.
A short description of assay [3]: THP-1 cell cytotoxicity, dose response, cytotoxicity control for non-replicating M. tuberculosis project (AID 489025). Type of assay: functional.
The nature of assay [4]: Vero E6 cell cytotoxicity, dose response, cytotoxicity control for non-replicating M. tuberculosis project, secondary assay (AID 492998). Type of assay: functional, VeroE6. To be noted: Vero C1008.
Assay [5] in a line: cells. Type of assay: functional.
In a further assay the target is T2, Protein skinhead-1 (Caenorhabditis elegans, UniProt P34707).
T2 sequence (P34707 whole entry): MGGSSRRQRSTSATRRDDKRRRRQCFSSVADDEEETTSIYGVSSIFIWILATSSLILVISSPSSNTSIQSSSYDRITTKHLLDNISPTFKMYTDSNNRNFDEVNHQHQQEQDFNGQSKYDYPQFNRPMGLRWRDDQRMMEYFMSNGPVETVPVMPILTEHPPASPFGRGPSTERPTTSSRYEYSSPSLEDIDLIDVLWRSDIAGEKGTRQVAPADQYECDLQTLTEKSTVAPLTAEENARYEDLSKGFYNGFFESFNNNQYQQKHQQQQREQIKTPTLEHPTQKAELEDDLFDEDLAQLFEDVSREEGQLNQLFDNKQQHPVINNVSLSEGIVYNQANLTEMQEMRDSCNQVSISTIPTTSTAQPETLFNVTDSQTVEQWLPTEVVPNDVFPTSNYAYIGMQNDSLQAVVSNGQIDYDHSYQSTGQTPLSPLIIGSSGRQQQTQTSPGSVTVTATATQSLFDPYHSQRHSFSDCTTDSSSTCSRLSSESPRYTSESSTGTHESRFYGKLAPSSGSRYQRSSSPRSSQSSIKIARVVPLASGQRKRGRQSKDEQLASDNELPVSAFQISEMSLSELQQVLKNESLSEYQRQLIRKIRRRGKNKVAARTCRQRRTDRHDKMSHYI
Type of assay: functional.

Assay [6] is described as follows: viability of uninfected HEp-2 cells – cell-based, HTS, cytotoxicity control for RSV inhibitor project, dose response (AID 2410). To be noted: human respiratory syncytial virus. Type of assay: functional.
Another assay concerns the target T3, Caspase-3 (Homo sapiens, UniProt P42574).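 Note: Dose-response selectivity test against caspase-3 for candidate inhibitors of sentrin-specific proteases (SENPs).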
T3 sequence (P42574 whole entry): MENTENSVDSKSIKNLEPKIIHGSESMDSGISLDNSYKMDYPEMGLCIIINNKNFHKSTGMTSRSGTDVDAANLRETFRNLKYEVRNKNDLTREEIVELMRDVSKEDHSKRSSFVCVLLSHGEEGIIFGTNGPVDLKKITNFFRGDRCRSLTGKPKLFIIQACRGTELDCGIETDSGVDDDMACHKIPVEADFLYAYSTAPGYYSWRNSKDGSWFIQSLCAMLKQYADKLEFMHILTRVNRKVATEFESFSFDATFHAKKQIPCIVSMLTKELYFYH
Type of assay: functional.

Assay [7] has as its target T4, Sentrin-specific protease 7 (Homo sapiens, UniProt Q9BQF6).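 Note: Luminescence-based dose-response confirmation of ultra-high-throughput screening hits, measuring inhibition of SENP7.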
T4 sequence (Q9BQF6 whole entry): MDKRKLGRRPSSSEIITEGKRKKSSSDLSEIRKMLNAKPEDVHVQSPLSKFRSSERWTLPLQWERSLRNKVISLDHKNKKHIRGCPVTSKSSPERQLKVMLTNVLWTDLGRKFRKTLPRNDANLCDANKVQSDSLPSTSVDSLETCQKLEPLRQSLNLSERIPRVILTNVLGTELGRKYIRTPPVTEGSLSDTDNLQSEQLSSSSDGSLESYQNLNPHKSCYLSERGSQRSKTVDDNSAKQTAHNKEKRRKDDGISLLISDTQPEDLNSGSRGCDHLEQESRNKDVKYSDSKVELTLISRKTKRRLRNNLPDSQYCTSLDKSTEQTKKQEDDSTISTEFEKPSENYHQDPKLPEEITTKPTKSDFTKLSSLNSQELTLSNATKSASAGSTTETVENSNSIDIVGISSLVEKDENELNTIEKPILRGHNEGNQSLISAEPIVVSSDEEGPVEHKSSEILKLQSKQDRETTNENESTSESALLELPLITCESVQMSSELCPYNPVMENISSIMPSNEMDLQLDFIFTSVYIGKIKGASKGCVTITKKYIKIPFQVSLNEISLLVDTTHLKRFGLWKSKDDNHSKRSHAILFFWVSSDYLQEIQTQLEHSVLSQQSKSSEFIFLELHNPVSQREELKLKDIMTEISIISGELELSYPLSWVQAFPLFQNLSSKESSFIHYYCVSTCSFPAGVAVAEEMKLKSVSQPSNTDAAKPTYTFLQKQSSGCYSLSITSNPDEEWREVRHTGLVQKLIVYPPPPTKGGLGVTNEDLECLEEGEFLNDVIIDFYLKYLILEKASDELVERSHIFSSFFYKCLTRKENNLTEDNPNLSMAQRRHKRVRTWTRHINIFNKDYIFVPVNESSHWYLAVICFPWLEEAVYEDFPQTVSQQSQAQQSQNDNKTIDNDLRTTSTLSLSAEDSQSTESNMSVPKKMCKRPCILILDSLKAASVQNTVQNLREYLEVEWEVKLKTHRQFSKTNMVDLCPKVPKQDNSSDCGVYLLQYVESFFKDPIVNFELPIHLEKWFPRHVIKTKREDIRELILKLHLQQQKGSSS
The class given is functional.

For assay [8], the target named is T5, Sentrin-specific protease 6 (Homo sapiens, UniProt Q9GZR1).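 Note: Luminescence-based dose-response confirmatory assay of SENP6 inhibition, following up an ultra-high-throughput screen.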
T5 sequence (Q9GZR1 whole entry): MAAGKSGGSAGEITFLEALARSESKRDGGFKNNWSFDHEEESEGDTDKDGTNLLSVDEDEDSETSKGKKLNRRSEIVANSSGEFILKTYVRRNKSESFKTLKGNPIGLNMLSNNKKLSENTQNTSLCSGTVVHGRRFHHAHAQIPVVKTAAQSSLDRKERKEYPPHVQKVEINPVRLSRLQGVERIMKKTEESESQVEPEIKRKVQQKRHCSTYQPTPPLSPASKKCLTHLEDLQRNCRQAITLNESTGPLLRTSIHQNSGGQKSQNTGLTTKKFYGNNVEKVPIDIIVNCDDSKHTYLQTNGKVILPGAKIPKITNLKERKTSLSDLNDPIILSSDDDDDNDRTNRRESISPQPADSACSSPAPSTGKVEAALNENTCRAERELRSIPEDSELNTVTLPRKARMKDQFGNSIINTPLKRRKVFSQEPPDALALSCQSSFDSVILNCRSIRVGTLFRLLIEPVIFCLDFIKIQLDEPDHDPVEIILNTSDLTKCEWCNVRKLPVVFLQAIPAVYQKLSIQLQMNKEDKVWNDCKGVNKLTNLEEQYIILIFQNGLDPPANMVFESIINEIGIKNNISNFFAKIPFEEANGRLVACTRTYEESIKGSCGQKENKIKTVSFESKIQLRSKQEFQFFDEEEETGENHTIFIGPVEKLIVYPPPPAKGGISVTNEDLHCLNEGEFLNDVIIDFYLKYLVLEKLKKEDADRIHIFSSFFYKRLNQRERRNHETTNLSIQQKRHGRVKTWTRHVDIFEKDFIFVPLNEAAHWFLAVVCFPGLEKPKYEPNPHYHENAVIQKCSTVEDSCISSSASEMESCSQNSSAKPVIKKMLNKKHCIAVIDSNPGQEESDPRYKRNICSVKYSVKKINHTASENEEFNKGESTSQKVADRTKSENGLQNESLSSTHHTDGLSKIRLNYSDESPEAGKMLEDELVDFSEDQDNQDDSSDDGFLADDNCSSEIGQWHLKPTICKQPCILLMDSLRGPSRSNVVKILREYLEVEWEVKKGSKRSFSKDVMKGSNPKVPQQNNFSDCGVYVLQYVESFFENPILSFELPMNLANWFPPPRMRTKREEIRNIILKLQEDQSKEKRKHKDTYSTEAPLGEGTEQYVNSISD
The class given is functional.

Assay [9] addresses T6, Sentrin-specific protease 8 (Homo sapiens, UniProt Q96LD8).
T6 sequence (Q96LD8 whole entry): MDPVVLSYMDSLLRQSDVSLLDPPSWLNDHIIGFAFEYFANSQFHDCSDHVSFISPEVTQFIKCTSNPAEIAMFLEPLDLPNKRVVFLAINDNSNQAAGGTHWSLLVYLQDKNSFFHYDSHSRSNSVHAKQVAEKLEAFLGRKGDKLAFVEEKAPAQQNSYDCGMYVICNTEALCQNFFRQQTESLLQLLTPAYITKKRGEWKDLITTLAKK
Type of assay: functional.

The nature of assay [10]: cells.
Assay [11] addresses Glucose-6-phosphate 1-dehydrogenase (Homo sapiens, UniProt P11413). Put plainly: inhibition of Homo sapiens G6PD, dose series – biochemical, fluorescence, selectivity assay for P. falciparum G6PD inhibitor project, dose response (AID 504792). The class given is functional.
A further assay has as its target Genome polyprotein (dengue virus type 2, UniProt P29990). Put plainly: flavivirus cap methylation enzyme inhibition – biochemical, confirmation dose response, primary screen (AID 588689). Type of assay: functional.
The target of a further assay is Nonstructural protein 1 (Influenza A virus, UniProt Q194T2). Type of assay: functional, Influenza A virus (A/California/07/2009(H1N1)).
Sequence of Nonstructural protein 1 (Q194T2 whole entry): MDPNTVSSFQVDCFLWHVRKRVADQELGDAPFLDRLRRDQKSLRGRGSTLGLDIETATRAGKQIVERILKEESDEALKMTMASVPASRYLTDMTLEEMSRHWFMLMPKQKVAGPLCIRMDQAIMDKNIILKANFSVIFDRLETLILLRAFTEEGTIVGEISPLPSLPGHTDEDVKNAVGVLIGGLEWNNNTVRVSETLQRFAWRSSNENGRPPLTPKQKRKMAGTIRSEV

Sequence of Glucose-6-phosphate 1-dehydrogenase (P11413 whole entry): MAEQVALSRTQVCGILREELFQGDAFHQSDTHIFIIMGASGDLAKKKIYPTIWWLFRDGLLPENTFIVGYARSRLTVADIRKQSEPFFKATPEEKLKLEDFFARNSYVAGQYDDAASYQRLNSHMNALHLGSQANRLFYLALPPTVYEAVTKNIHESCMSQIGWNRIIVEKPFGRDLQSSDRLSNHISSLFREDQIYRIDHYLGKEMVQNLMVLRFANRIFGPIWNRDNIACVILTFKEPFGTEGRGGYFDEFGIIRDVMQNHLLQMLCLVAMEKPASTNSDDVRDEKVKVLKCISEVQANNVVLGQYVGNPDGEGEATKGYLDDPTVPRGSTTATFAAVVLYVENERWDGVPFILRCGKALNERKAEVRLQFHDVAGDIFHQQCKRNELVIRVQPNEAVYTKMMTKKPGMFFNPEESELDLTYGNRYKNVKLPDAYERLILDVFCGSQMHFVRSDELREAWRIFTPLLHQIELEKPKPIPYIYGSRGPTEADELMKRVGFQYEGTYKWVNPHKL
Sequence of Genome polyprotein (P29990 2492-3391 limits assumed): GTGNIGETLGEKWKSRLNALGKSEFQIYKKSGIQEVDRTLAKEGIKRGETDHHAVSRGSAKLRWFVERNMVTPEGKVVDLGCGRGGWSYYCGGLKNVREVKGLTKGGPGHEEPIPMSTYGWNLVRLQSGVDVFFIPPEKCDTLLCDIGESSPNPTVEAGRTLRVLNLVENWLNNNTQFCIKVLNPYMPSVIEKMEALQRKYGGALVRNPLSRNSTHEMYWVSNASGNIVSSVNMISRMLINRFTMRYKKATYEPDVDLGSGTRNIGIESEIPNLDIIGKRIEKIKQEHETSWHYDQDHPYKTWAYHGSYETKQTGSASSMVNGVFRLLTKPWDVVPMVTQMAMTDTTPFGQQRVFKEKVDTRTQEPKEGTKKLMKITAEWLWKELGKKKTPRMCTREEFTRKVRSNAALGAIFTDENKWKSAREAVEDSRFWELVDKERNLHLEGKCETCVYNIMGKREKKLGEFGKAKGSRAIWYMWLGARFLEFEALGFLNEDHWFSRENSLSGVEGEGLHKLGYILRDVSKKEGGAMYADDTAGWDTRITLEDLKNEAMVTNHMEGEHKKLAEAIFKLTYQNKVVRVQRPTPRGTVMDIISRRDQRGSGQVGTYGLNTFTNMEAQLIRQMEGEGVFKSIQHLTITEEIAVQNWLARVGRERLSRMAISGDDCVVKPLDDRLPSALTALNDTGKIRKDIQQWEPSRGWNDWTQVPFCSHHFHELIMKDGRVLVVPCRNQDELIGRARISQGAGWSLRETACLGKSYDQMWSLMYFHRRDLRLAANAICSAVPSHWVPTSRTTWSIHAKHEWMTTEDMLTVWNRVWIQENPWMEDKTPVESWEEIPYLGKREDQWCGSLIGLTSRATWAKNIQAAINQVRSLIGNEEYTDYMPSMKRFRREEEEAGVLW

As for `O=C(c1ccc(Cl)c(Cl)c1)N(Cc1ccco1)c1ccc(O)cc1`, in assay [1], the EC50 is 8.41 µM (active).
In the case of `COc1ccc(Cn2nnnc2C(c2cc3ccc(OC)cc3nc2O)N2CCC(C)CC2)cc1` (centres undefined), in assay [2], the EC50 was > 50 µM (active).
As to `OCC1(CCc2ccccc2)CCN(Cc2cc(Cl)ccc2O)CC1`, the EC50 in [1] was 9.44 µM (active).
For the molecule `Fc1ccc(CN2CCC(Cc3ccccc3)CC2)cc1F`, in [1], the EC50 was 4.73 µM (active).
As for `C=CCc1ccc(OCC(O)CN2CCN(Cc3ccc(Cl)cc3)CC2)c(OC)c1` (centres undefined), the figures for the CC50 in [3] and in [4] were > 40 µM (active) and > 20 µM (active), respectively. In the assay “cells [5]”, the IC50 was 23.3 µM (active).
Take `Cc1cc(C)nc(N=C(N)NC2CCCCC2)n1`: the EC50 in [1] is 4.22 µM (active).
Take `O=C(c1ccco1)N1CCN(C/C=C/c2ccccc2)CC1`: in [1], the EC50 was 0.596 µM (active). In addition, the IC50 on Protein skinhead-1 was > 100 µM (inactive).
Consider `N#Cc1nc(COc2ccc(Br)cc2)oc1NCCCn1ccnc1`, for which the EC50 in assay [2] was > 50 µM (active).
As for `CN(C)C(=O)COC(=O)c1ccccc1Nc1ccc(SC(F)F)cc1`, in [6], the CC50 is 8.89 µM (active). Also, the IC50 at Caspase-3 is 28.2 µM (active); in assay [7], 4.9 µM (active); in assay [8] it was 12.8 µM (active); in assay [9], 17.8 µM (active); in the assay “cells [10]”, 4.77 µM (active).
Take `CSC1=NC2(C)CCCCC2C12C=CC(=O)C=C2` (centres undefined): the EC50 in assay [2] is > 50 µM (active).
In the case of `Oc1cc(CNCc2ccccc2)c(O)cc1CNCc1ccccc1`, the IC50 was > 80 µM (inactive) in [11] and 37.4 µM (active) on Genome polyprotein.
`O=C1NCCCC1C(=O)N/N=C/c1cc([N+](=O)[O-])ccc1O` (centres undefined): in [2], the EC50 was > 50 µM (active). Besides, the IC50 on Nonstructural protein 1 is 16.8 µM (active).
Consider `COc1cccc(/C=N/NC(=O)c2c(C)nc3ccc(Br)cn23)c1`, for which the IC50 in assay [11] is 36 µM (inactive).
In the case of `Cc1cc(Cl)ccc1OCC(=O)N/N=C/c1ccncc1`, the EC50 in assay [2] is > 50 µM (active).

For orientation: EC50 means the concentration at which the effect is half-maximal. What is called CC50 is the concentration giving 50% cytotoxicity. The IC50 is the midpoint of a concentration-inhibition curve.
